According to ChEMBL document CHEMBL3853313, “Iminoguanidines as Allosteric Inhibitors of the Iron-Regulated Heme Oxygenase (HemO) of Pseudomonas aeruginosa” (J Med Chem, 2016):
Active and inactive are the calls of the source. The rule behind the calls is not given here.

Tests used:
[1] = target: T1, Heme oxygenase (Pseudomonas aeruginosa, UniProt O69002); assay: Binding affinity to Pseudomonas aeruginosa HemO by intrinsic fluorescence quenching method
T1 sequence (O69002 whole entry): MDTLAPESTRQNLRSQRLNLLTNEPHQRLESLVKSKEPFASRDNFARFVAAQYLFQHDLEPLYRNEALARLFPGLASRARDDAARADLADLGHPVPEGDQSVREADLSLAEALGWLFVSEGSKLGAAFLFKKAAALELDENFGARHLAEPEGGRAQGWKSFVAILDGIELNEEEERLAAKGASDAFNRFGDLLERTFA

[2] = system: Pseudomonas aeruginosa; assay: Bactericidal activity against Pseudomonas aeruginosa JSRI-2 clinical isolate after 12 hrs; format: functional; conditions: JSRI-2, 12 h
[3] = system: Pseudomonas aeruginosa; assay: Antibacterial activity against Pseudomonas aeruginosa JSRI-2 clinical isolate after 12 hrs; format: functional; conditions: JSRI-2, 12 h
[4] = Inhibition of Pseudomonas aeruginosa HemO mutant expressed in Escherichia coli BL21(DE3) assessed as decrease in biliverdin-9alpha-dependent IFP1.4 fluorescence after 16 hrs by spectrophotometric method
[5] = system: Pseudomonas aeruginosa; assay: Bactericidal activity against Pseudomonas aeruginosa JSRI-1 clinical isolate after 12 hrs; format: functional; conditions: JSRI-1, 12 h
[6] = system: Pseudomonas aeruginosa; assay: Bactericidal activity against Pseudomonas aeruginosa PAO1 after 12 hrs; format: functional; conditions: PAO1, 12 h
[7] = system: Pseudomonas aeruginosa; assay: Antibacterial activity against Pseudomonas aeruginosa PAO1 after 12 hrs; format: functional; conditions: PAO1, 12 h
[8] = system: Pseudomonas aeruginosa; assay: Antibacterial activity against Pseudomonas aeruginosa JSRI-1 clinical isolate after 12 hrs; format: functional; conditions: JSRI-1, 12 h
[9] = target: T2, Heme oxygenase (Pseudomonas aeruginosa) (UniProt O69002); assay: Binding affinity to Pseudomonas aeruginosa HemO by STD NMR method
T2 sequence (whole entry): T1 sequence (O69002 whole entry)

[10] = target: T2, Heme oxygenase (Pseudomonas aeruginosa); assay: Binding affinity to Pseudomonas aeruginosa holo-HemO (53 to 62 residues) at 30 mins by HXMS method
[11] = system: Escherichia coli; assay: Toxicity in Escherichia coli BL21(DE3) expressing Pseudomonas aeruginosa HemO mutant after 16 hrs by phase contrast microscopy

| Compound | Kd [1] [µM] | MBC [2] [µg/mL] | MIC50 [3] [µg/mL] | EC50 [4] [µM] | MBC [5] [µg/mL] | MBC [6] [µg/mL] | MIC50 [7] [µg/mL] | MIC50 [8] [µg/mL] | Activity [9] | Activity [10] | Activity [11] |
| --- | --- | --- | --- | --- | --- | --- | --- | --- | --- | --- | --- |
| N=C(N)N/N=C/c1ccccc1Br | 6.7 |  |  |  |  |  |  |  |  |  |  |
| Cl.N=C(N)N/N=C/c1ccc([N+](=O)[O-])cc1 | 6.2 | 125 | 47.2 | 64.4 | 1000 | 1000 | 72.8 | 61.4 |  |  |  |
| Cl.NC(N)=N/N=C/c1cc(O)cc(O)c1 | 8 |  | 564 | > 200 |  |  | 1140 | 338 |  |  |  |
| Cl.N=C(N)N/N=C/c1ccc(F)cc1 | 14 | 500 | 69.4 | 77.5 | 1000 | 1000 | 162 | 87.4 |  |  |  |
| Cl.NC(N)=N/N=C/c1cccc(Br)c1O | 8 | 250 | 45.6 | 60.3 | 1000 | 500 | 80.5 | 145 |  |  |  |
| COc1ccc(/C=N/NC(=N)N)cc1.Cl | 7.8 | 500 | 38 | 77.4 | 1000 | 500 | 113 | 30.5 |  |  |  |
| Cl.N=C(N)N/N=C/c1ccc2ccccc2c1 |  | 125 | 75.6 | 43.1 | 250 | 250 | 48.4 | 31.7 |  |  |  |
| N=C(N)N/N=C/c1cccc(OCc2ccccc2)c1 |  |  |  |  |  |  |  |  | Active |  |  |
| Cl.N=C(N)N/N=C/c1ccccc1O | 9.2 | 250 | 79.1 | 102 | > 1000 | > 1000 | 123 | 58.5 | Active |  |  |
| Cl.NC(N)=N/N=C/c1cccc(F)c1 | 12 | 250 | 68.2 | 45.1 | 1000 | 1000 | 66.6 | 70 |  |  |  |
| Cl.NC(N)=N/N=C/c1ccc(-c2ccccc2)cc1 | 6.7 | 62.5 | 38 | 21.9 | 125 | 125 | 59.1 | 34.6 |  | Active |  |
| Cl.NC(N)=N/N=C/c1ccc(O)cc1 | 4.8 | > 1000 | 121 | > 200 | > 1000 | > 1000 | 408 | 443 |  |  |  |
| Cl.NC(N)=N/N=C/c1cccc(O)c1 | 21 |  | 617 | > 200 |  |  | 750 | 391 |  |  |  |
| Cl.N=C(N)N/N=C/c1cccc2ccccc12 | 12 | 125 | 36.1 | 52.4 | 250 | 250 | 32.1 | 30.4 |  |  |  |
| Cl.NC(N)=N/N=C/c1cccc(OCc2ccccc2)c1 |  | 62.5 | 33.9 | 34.3 | 125 | 125 | 23.2 | 25.5 |  |  |  |
| CN(C)c1ccc(/C=N/NC(=N)N)cc1.Cl | 8.8 | 250 | 15.5 | 123 | 1000 | 1000 | 121 | 32.5 |  |  | Non-Toxic |
| COc1ccccc1/C=N/NC(=N)N.Cl |  | 500 | 125 | 72.7 | > 1000 | 1000 | 99.5 | 38.4 | Active |  |  |
| Cl.NC(N)=N/N=C/c1ccccc1Br |  | 250 | 33.4 | 35.3 | 500 | 500 | 50.1 | 62.9 | Active |  |  |
| Cl.N=C(N)N/N=C/c1ccc(Cl)cc1 | 7 | 62.5 | 41.6 | 122 | 250 | 500 | 49 | 10.7 |  |  |  |
| Cl.NC(N)=N/N=C/c1cccc(Br)c1 | 12 | 125 | 19.4 | 11.2 | 500 | 250 | 51.3 | 23 |  |  |  |
| Cl.NC(N)=N/N=C/c1ccc(Cl)c(Cl)c1 | 8.4 | 125 | 16.4 | 20.3 | 125 | 125 | 32.3 | 24.1 |  |  |  |
| COc1cccc(/C=N/N=C(N)N)c1.Cl |  | 500 | 93.4 |  | 1000 | > 1000 | 134 | 48.6 |  |  |  |
| Cl.N=C(N)N/N=C/c1cccc(Cl)c1 | 8.4 | 250 | 33.5 | 19.4 | 500 | 250 | 52.4 | 19.2 |  |  |  |
| Cl.N=C(N)N/N=C/c1ccc(Br)cc1 | 15 | 62.5 | 13.4 | 35.6 | 250 | 250 | 52.5 | 19.7 |  |  |  |
| CC(C)c1ccc(/C=N/NC(=N)N)cc1.Cl | 5.7 | 125 | 81 | 11.3 | 125 | 125 | 52.3 | 20.6 |  |  |  |
| Cl.N=C(N)N/N=C/c1ccccc1F | 11 | 250 | 72.9 | > 200 | > 1000 | 1000 | 131 | 28.6 |  |  |  |
